How the values were obtained:
Assay type in all cases: in vivo
[1] = test system: barnyardgrass (Echinochloa crus-galli); experiment: Test A preemergence barnyardgrass; details: 0 to 100 scale, 0 no effect, 100 complete control
Excerpt: (§1) Seeds of plant species selected from barnyardgrass (Echinochloa crus-galli), kochia (Kochia scoparia), ragweed (common ragweed, Ambrosia elatior), ryegrass, Italian (Italian ryegrass, Lolium multiflorum), crabgrass, large (large crabgrass, Digitaria sanguinalis), foxtail, giant (giant foxtail, Setaria faberii), morningglory (Ipomoea spp.), pigweed (Amaranthus retroflexus), velvetleaf (Abutilon theophrasti), wheat (Triticum aestivum), and corn (Zea mays) were planted into a blend of loam soil and sand and treated preemergence with a directed soil spray using test chemicals formulated in a non-phytotoxic solvent mixture which included a surfactant.
(§2) At the same time, plants selected from these crop and weed species and also blackgrass (Alopecurus myosuroides), and galium (catchweed bedstraw, Galium aparine) were planted in pots containing the same blend of loam soil and sand and treated with postemergence applications of test chemicals formulated in the same manner. Plants ranged in height from 2 to 10 cm and were in the one- to two-leaf stage for the postemergence treatment. Treated plants and untreated controls were maintained in a greenhouse for approximately 10 d, after which time all treated plants were compared to untreated controls and visually evaluated for injury. Plant response ratings, summarized in Table A, are based on a 0 to 100 scale where 0 is no effect and 100 is complete control. A dash (-) response means no test result.

[2] = test system: kochia (Kochia scoparia); experiment: Test A preemergence kochia; details: 0 to 100 scale, 0 no effect, 100 complete control
Excerpt: as §1, §2

[3] = test system: ragweed (common ragweed, Ambrosia elatior); experiment: Test A preemergence ragweed; details: 0 to 100 scale, 0 no effect, 100 complete control
Excerpt: as §1, §2

[4] = test system: ryegrass, Italian (Italian ryegrass, Lolium multiflorum); experiment: Test A preemergence ryegrass, Italian; details: 0 to 100 scale, 0 no effect, 100 complete control
Excerpt: as §1, §2

[5] = test system: foxtail, giant (giant foxtail, Setaria faberii); experiment: Test A preemergence foxtail, giant; details: 0 to 100 scale, 0 no effect, 100 complete control
Excerpt: as §1, §2

[6] = test system: pigweed (Amaranthus retroflexus); experiment: Test A preemergence pigweed; details: 0 to 100 scale, 0 no effect, 100 complete control
Excerpt: as §1, §2

[7] = test system: barnyardgrass (Echinochloa crus-galli); experiment: Test A postemergence barnyardgrass; details: 0 to 100 scale, 0 is no effect, 100 is complete control
Excerpt: as §1, §2

[8] = test system: kochia (Kochia scoparia); experiment: Test A postemergence kochia; details: 0 to 100 scale, 0 is no effect, 100 is complete control
Excerpt: as §1, §2

[9] = test system: ragweed (common ragweed, Ambrosia elatior); experiment: Test A postemergence ragweed; details: 0 to 100 scale, 0 is no effect, 100 is complete control
Excerpt: as §1, §2

[10] = test system: ryegrass, Italian (Italian ryegrass, Lolium multiflorum); experiment: Test A postemergence ryegrass, Italian; details: 0 to 100 scale, 0 is no effect, 100 is complete control
Excerpt: as §1, §2

[11] = test system: foxtail, giant (giant foxtail, Setaria faberii); experiment: Test A postemergence foxtail, giant; details: 0 to 100 scale, 0 is no effect, 100 is complete control
Excerpt: as §1, §2

[12] = test system: pigweed (Amaranthus retroflexus); experiment: Test A postemergence pigweed; details: 0 to 100 scale, 0 is no effect, 100 is complete control
Excerpt: as §1, §2

[13] = test system: wheat (Triticum aestivum); experiment: Test A postemergence wheat; details: 0 to 100 scale, 0 is no effect, 100 is complete control
Excerpt: as §1, §2

[14] = test system: corn (Zea mays); experiment: Test A postemergence corn; details: 0 to 100 scale, 0 is no effect, 100 is complete control
Excerpt: as §1, §2

[15] = test system: blackgrass (Alopecurus myosuroides); experiment: Test A postemergence blackgrass; details: 0 to 100 scale, 0 is no effect, 100 is complete control
Excerpt: as §1, §2

[16] = test system: galium (catchweed bedstraw, Galium aparine); experiment: Test A postemergence galium; details: 0 to 100 scale, 0 is no effect, 100 is complete control
Excerpt: as §1, §2

[17] = test system: rice (Oryza sativa); experiment: Test B flooded paddy test rice; details: Table B, Flood, scale 0 to 100
Protocol: (§3) Plant species in the flooded paddy test selected from rice (Oryza sativa), sedge, umbrella (small-flower umbrella sedge, Cyperus difformis), ducksalad (Heteranthera limosa), and barnyardgrass (Echinochloa crus-galli) were grown to the 2-leaf stage for testing. At the time of treatment, test pots were flooded to 3 cm above the soil surface, treated by application of test compounds directly to the paddy water, and then maintained at that water depth for the duration of the test. Treated plants and controls were maintained in a greenhouse for 13 to 15 d, after which time all species were compared to controls and visually evaluated. […] A dash (-) response means no test result.

[18] = test system: sedge, umbrella (small-flower umbrella sedge, Cyperus difformis); experiment: Test B flooded paddy test sedge, umbrella; details: Table B, Flood, scale 0 to 100
Protocol: as §3

[19] = test system: ducksalad (Heteranthera limosa); experiment: Test B flooded paddy test ducksalad; details: Table B, Flood, scale 0 to 100
Protocol: as §3

[20] = test system: barnyardgrass (Echinochloa crus-galli); experiment: Test B flooded paddy test barnyardgrass; details: Table B, Flood, scale 0 to 100
Protocol: as §3

Structure (SMILES) | Barnyardgrass plant response rating ([1]; 125 g ai/ha) | Barnyardgrass plant response rating ([1]; 500 g ai/ha) | Kochia plant response rating ([2]; 125 g ai/ha) | Kochia plant response rating ([2]; 500 g ai/ha) | Ragweed plant response rating ([3]; 125 g ai/ha) | Ragweed plant response rating ([3]; 500 g ai/ha) | Ryegrass, Italian plant response rating ([4]; 125 g ai/ha) | Ryegrass, Italian plant response rating ([4]; 500 g ai/ha) | Foxtail, Giant plant response rating ([5]; 125 g ai/ha) | Foxtail, Giant plant response rating ([5]; 500 g ai/ha) | Pigweed plant response rating ([6]; 125 g ai/ha) | Pigweed plant response rating ([6]; 500 g ai/ha) | Plant response rating, Barnyardgrass ([7]; 125 g ai/ha) | Plant response rating, Barnyardgrass ([7]; 500 g ai/ha) | Plant response rating, Kochia ([8]; 125 g ai/ha) | Plant response rating, Kochia ([8]; 500 g ai/ha) | Plant response rating, Ragweed ([9]; 125 g ai/ha) | Plant response rating, Ragweed ([9]; 500 g ai/ha) | Plant response rating, Ryegrass, Italian ([10]; 125 g ai/ha) | Plant response rating, Ryegrass, Italian ([10]; 500 g ai/ha) | also measured
O=C1NCC[C@@H](c2cccc(C(F)(F)F)c2)[C@@H]1C(=O)Nc1cccc(F)c1F [Compound 20] | 50 | 90 | 0 | 0 | 0 | 0 | 0 | 0 | 60 | 90 | 0 | 0 | 40 | 80 | 0 | 0 | 0 | 0 | 0 | 20 | Plant response rating, Foxtail, Giant ([11]; 125 g ai/ha): 40; Plant response rating, Foxtail, Giant ([11]; 500 g ai/ha): 80; Plant response rating, Pigweed ([12]; 125 g ai/ha): 0; Plant response rating, Pigweed ([12]; 500 g ai/ha): 0; Plant response rating, Wheat ([13]; 125 g ai/ha): 0; Plant response rating, Wheat ([13]; 500 g ai/ha): 0; Plant response rating, Corn ([14]; 125 g ai/ha): 0; Plant response rating, Corn ([14]; 500 g ai/ha): 20; Plant response rating, Blackgrass ([15]; 125 g ai/ha): 0; Plant response rating, Blackgrass ([15]; 500 g ai/ha): 20; Plant response rating, Galium ([16]; 125 g ai/ha): 0; Plant response rating, Galium ([16]; 500 g ai/ha): 0; Plant response rating ([17]; 250 g ai/ha): 0; Plant response rating ([18]; 250 g ai/ha): 0; Plant response rating ([19]; 250 g ai/ha): 0; Plant response rating ([20]; 250 g ai/ha): 0
O=C1NCCC(c2cccc(OC(F)F)c2)C1C(=O)Nc1ccccc1F (racemic) [Compound 45] | 20 | 70 | 0 | 0 | 0 | 0 | 0 | 0 | 40 | 80 | 0 | 0 | 0 | 60 | 0 | 0 | 0 | 0 | 0 | 0 | Plant response rating, Foxtail, Giant ([11]; 125 g ai/ha): 0; Plant response rating, Foxtail, Giant ([11]; 500 g ai/ha): 50; Plant response rating, Pigweed ([12]; 125 g ai/ha): 0; Plant response rating, Pigweed ([12]; 500 g ai/ha): 0; Plant response rating, Wheat ([13]; 125 g ai/ha): 0; Plant response rating, Wheat ([13]; 500 g ai/ha): 0; Plant response rating, Corn ([14]; 125 g ai/ha): 0; Plant response rating, Corn ([14]; 500 g ai/ha): 0; Plant response rating, Blackgrass ([15]; 125 g ai/ha): 0; Plant response rating, Blackgrass ([15]; 500 g ai/ha): 20; Plant response rating, Galium ([16]; 125 g ai/ha): 0; Plant response rating, Galium ([16]; 500 g ai/ha): 0; Plant response rating ([17]; 500 g ai/ha): 0; Plant response rating ([18]; 500 g ai/ha): 0; Plant response rating ([19]; 500 g ai/ha): 50; Plant response rating ([20]; 500 g ai/ha): 0
O=C1NCCC(c2cccc(Cl)c2)C1C(=O)Nc1ccccc1C(F)(F)F (racemic) [Compound 33] | 50 | 90 | 0 | 30 | 0 | 0 | 0 | 0 | 70 | 90 | 0 | 0 | 60 | 90 | 0 | 0 | 0 | 0 | 0 | 0 | Plant response rating, Foxtail, Giant ([11]; 125 g ai/ha): 50; Plant response rating, Foxtail, Giant ([11]; 500 g ai/ha): 90; Plant response rating, Pigweed ([12]; 125 g ai/ha): 0; Plant response rating, Pigweed ([12]; 500 g ai/ha): 0; Plant response rating, Wheat ([13]; 125 g ai/ha): 0; Plant response rating, Wheat ([13]; 500 g ai/ha): 0; Plant response rating, Corn ([14]; 125 g ai/ha): 0; Plant response rating, Corn ([14]; 500 g ai/ha): 0; Plant response rating, Blackgrass ([15]; 125 g ai/ha): 0; Plant response rating, Blackgrass ([15]; 500 g ai/ha): 0; Plant response rating, Galium ([16]; 125 g ai/ha): 0; Plant response rating, Galium ([16]; 500 g ai/ha): 0; Plant response rating ([17]; 500 g ai/ha): 0; Plant response rating ([18]; 500 g ai/ha): 0; Plant response rating ([19]; 500 g ai/ha): 80; Plant response rating ([20]; 500 g ai/ha): 20
O=C1NCC[C@@H](c2cccc(C(F)(F)F)c2)[C@@H]1C(=O)Nc1ccc(F)c(F)c1F [Compound 29] | 0 | 20 | 0 | 0 | 0 | 0 | 0 | 0 | 0 | 20 | 0 | 0 | 0 | 30 | 0 | 0 | 0 | 0 | 0 | 0 | Plant response rating, Foxtail, Giant ([11]; 125 g ai/ha): 0; Plant response rating, Foxtail, Giant ([11]; 500 g ai/ha): 0; Plant response rating, Pigweed ([12]; 125 g ai/ha): 0; Plant response rating, Pigweed ([12]; 500 g ai/ha): 0; Plant response rating, Wheat ([13]; 125 g ai/ha): 0; Plant response rating, Wheat ([13]; 500 g ai/ha): 0; Plant response rating, Corn ([14]; 125 g ai/ha): 0; Plant response rating, Corn ([14]; 500 g ai/ha): 0; Plant response rating, Blackgrass ([15]; 125 g ai/ha): 0; Plant response rating, Blackgrass ([15]; 500 g ai/ha): 0; Plant response rating, Galium ([16]; 125 g ai/ha): 0; Plant response rating, Galium ([16]; 500 g ai/ha): 0; Plant response rating ([17]; 250 g ai/ha): 0; Plant response rating ([18]; 250 g ai/ha): 0; Plant response rating ([19]; 250 g ai/ha): 0; Plant response rating ([20]; 250 g ai/ha): 0
O=C1NCCC(c2cccc(OC(F)(F)F)c2)C1C(=O)Nc1ccccc1F (racemic) [Compound 37] | 40 | 70 | 0 | 0 | 0 | 0 | 0 | 0 | 70 | 90 | 0 | 0 | 60 | 80 | 0 | 0 | 0 | 0 | 0 | 20 | Plant response rating, Foxtail, Giant ([11]; 125 g ai/ha): 20; Plant response rating, Foxtail, Giant ([11]; 500 g ai/ha): 70; Plant response rating, Pigweed ([12]; 125 g ai/ha): 0; Plant response rating, Pigweed ([12]; 500 g ai/ha): 0; Plant response rating, Wheat ([13]; 125 g ai/ha): 0; Plant response rating, Wheat ([13]; 500 g ai/ha): 0; Plant response rating, Corn ([14]; 125 g ai/ha): 0; Plant response rating, Corn ([14]; 500 g ai/ha): 0; Plant response rating, Blackgrass ([15]; 125 g ai/ha): 0; Plant response rating, Blackgrass ([15]; 500 g ai/ha): 0; Plant response rating, Galium ([16]; 125 g ai/ha): 0; Plant response rating, Galium ([16]; 500 g ai/ha): 0; Plant response rating ([17]; 250 g ai/ha): 0; Plant response rating ([18]; 250 g ai/ha): 0; Plant response rating ([19]; 250 g ai/ha): 90; Plant response rating ([20]; 250 g ai/ha): 35
